According to article PMC8348200, “Selective Antifungal Activity and Fungal Biofilm Inhibition of Tryptophan Center Symmetrical Short Peptide” (International Journal of Molecular Sciences, 2021):
Values after ≈ are worked out from the molar mass of the structure shown. Like-named read-outs stand apart in the source and are kept apart here. Residues, ends and D or L forms follow the SMILES beside them. No end group written: not given here.

Columns and labels:
E. coli 25922 = assay: microbe, parasite or virus in culture; type: cell-based, Escherichia coli; conditions: 25922, 24 h; read-out: MICs, E. coli 25922
Method: (§1) The peptide antimicrobial activity was determined according to the Clinical and Laboratory Standards Institute method, with modifications. Bacteria concentration was measured by ultraviolet spectrophotometer, and fungi concentration was confirmed by McMillan’s turbidimetric method, which compared the fungi solution with the standard McFarland tube in front of the horizontal line on the paper with the naked eye. Because the light has different refract in different liquids. The standard solution is composed of sulfuric acid and barium chloride, which is equivalent to 1*10^8 CFU fungi. After cultivation, the growth of fungi and bacteria was measured by TECAN automatic enzyme label instrument. Briefly, bacterial cells were cultured in MHB until logarithmic phase, yeast colonies cultured in Yeast Peptone Dextrose Agar (YPDA) were picked and diluted in RPMI 1640 growth medium buffered with morpholine propane sulfonic acid (MOPS), and then 50 μL of bacterial or fungi cell solution (0.5–1 × 10^4 CFU/mL) was added to each well of sterile 96-well plates. Each well contained 50 μL of AMPs dissolved in BSA; the final concentrations of the peptides ranged from 0.5 to 128 μM. The lowest concentration of peptide with no microbial growth being observed were measured after incubation at 37 °C for 24 h for bacteria or at 28 °C for 48 h for fungi. Broth with microbial cells and un-inoculated broth were used as positive control and negative controls, respectively.

E. coli UB1005 = assay: microbe, parasite or virus in culture; type: cell-based, Escherichia coli; conditions: UB1005, 24 h; read-out: MICs, E. coli UB1005
Method: as §1

S. aureus 25923 = assay: microbe, parasite or virus in culture; type: cell-based, Staphylococcus aureus; conditions: 25923, 24 h; read-out: MICs, S. aureus 25923
Method: as §1

S. aureus 29213 = assay: microbe, parasite or virus in culture; type: cell-based, Staphylococcus aureus; conditions: 29213, 24 h; read-out: MICs, S. aureus 29213
Method: as §1

L. rhamnosus 1.0385 = assay: microbe, parasite or virus in culture; type: cell-based, Lactobacillus rhamnosus; conditions: 24 h; read-out: MICs, L. rhamnosus 1.0385
Method: as §1

L. rhamnosus 1.0911 = assay: microbe, parasite or virus in culture; type: cell-based, Lactobacillus rhamnosus; conditions: 24 h; read-out: MICs, L. rhamnosus 1.0911
Method: as §1

[1] = system: C. parapsilosis cgmcc 2.3989; assay: microbe, parasite or virus in culture; type: cell-based; conditions: cgmcc 2.3989, 48 h; read-out: MICs, C. parapsilosis cgmcc 2.3989
Method: as §1

[2] = system: C. tropicalis cgmcc 2.1975; assay: microbe, parasite or virus in culture; type: cell-based; conditions: cgmcc 2.1975, 48 h; read-out: MICs, C. tropicalis cgmcc 2.1975
Method: as §1

L. plantarum 7469 = assay: microbe, parasite or virus in culture; type: cell-based; conditions: 24 h; read-out: MICs, L. plantarum 7469
Method: as §1

S. thermophilus YM-C = assay: microbe, parasite or virus in culture; type: cell-based, Streptococcus thermophiles; conditions: 24 h; read-out: MICs, S. thermophilus YM-C
Method: as §1

[3] = system: C. albicans Isolated from Alveolar Fluid; assay: microbe, parasite or virus in culture; type: cell-based, Candida albicans; conditions: RPMI 1640 buffered with MOPS, 28 °C 48 h, 0.5-128 μM; read-out: MICs, C. albicans Isolated from Alveolar Fluid
Method: as §1

C. albicans SP3902 = assay: microbe, parasite or virus in culture; type: cell-based, Candida albicans; conditions: clinical isolate; RPMI 1640 buffered with MOPS, 28 °C 48 h, 0.5-128 μM; read-out: MICs, C. albicans SP3902
Method: as §1

C. albicans SP3903 = assay: microbe, parasite or virus in culture; type: cell-based, Candida albicans; conditions: clinical isolate; RPMI 1640 buffered with MOPS, 28 °C 48 h, 0.5-128 μM; read-out: MICs, C. albicans SP3903
Method: as §1

C. albicans SP3937 = assay: microbe, parasite or virus in culture; type: cell-based, Candida albicans; conditions: clinical isolate; RPMI 1640 buffered with MOPS, 28 °C 48 h, 0.5-128 μM; read-out: MICs, C. albicans SP3937
Method: as §1

C. albicans cgmcc 2.2086 = assay: microbe, parasite or virus in culture; type: cell-based, Candida albicans; conditions: cgmcc 2.2086, 48 h; read-out: MICs, C. albicans cgmcc 2.2086
Method: as §1

[4] = system: Fluconazole-resistant C. albicans 56214; assay: microbe, parasite or virus in culture; conditions: fluconazole-resistant strain; RPMI 1640 buffered with MOPS, 28 °C 48 h, 0.5-128 μM
Method: as §1, with “Bacteria concentration was measured by ultraviolet spectrophotometer, and fungi concentration was confirmed by McMillan’s turbidimetric method, which compared the fungi solution with the standard McFarland tube in front of the horizontal line on the paper with the naked eye.” left out, “The lowest concentration of peptide with no microbial growth being observed were measured after incubation at 37 °C for 24 h for bacteria or at 28 °C for 48 h for fungi.” left out

C.albicans cgmcc 2.2086 = assay: microbe, parasite or virus in culture; type: cell-based, Candida albicans; conditions: cgmcc 2.2086, 24 h
Method: as §1, with “The lowest concentration of peptide with no microbial growth being observed were measured after incubation at 37 °C for 24 h for bacteria or at 28 °C for 48 h for fungi.” left out
The salt and acid sensitivities of the peptides were measured using with modified method to test MIC values; tested peptides were incubated in the presence of different final concentrations of physiological salts. The subsequent steps were consistent with the MIC determination protocol.

human red blood cells = assay: Hemolysis assay; type: cell-based; conditions: at the highest tested concentration; fresh human erythrocytes
Method: The cytotoxicity of the peptides was determined with three cell types, including the Pig kidney cells, HEK 293T cells and fresh, healthy human red blood cells (donated by Zhihua Wang) via the MTT dye reduction assay and hemolysis assay.

In the case of RRLSLWLSLRR-NH2 [Peptide P2], the MIC (E. coli 25922) is reported as 4 µM, the MIC (E. coli UB1005) is reported as 2 µM and the MIC (S. aureus 25923) is reported as 16 µM. For the same compound, the MIC (S. aureus 29213) was 4 µM, the MIC (L. rhamnosus 1.0385) was 8 µM and the MIC (L. rhamnosus 1.0911) was 8 µM. The MIC [1] was 8 µM, the MIC [2] was 2 µM and the MIC (L. plantarum 7469) was 128 µM. The MIC (S. thermophilus YM-C) was greater than 128 µM, the MIC [3] was 8 µM and the MIC (C. albicans SP3902) was 16 µM. For the same compound, the MIC (C. albicans SP3903) was 16 µM, the MIC (C. albicans SP3937) was 8 µM and the MIC (C. albicans cgmcc 2.2086) was 4 µM. For the same compound, the “MICs, C. albicans 56214” value [4] was 8 µM.
Compound RRLALWLALRR-NH2 [Peptide P1] has an MIC (E. coli 25922) of 4 µM, an MIC (E. coli UB1005) of 2 µM and an MIC (S. aureus 25923) of 8 µM. The MIC (S. aureus 29213) was 8 µM, the MIC (L. rhamnosus 1.0385) was 8 µM and the MIC (L. rhamnosus 1.0911) was 64 µM. The MIC [1] was 8 µM, the MIC [2] was 2 µM and the MIC (L. plantarum 7469) was greater than 128 µM. It also gave an MIC (S. thermophilus YM-C) of 128 µM, an MIC [3] of 8 µM and an MIC (C. albicans SP3902) of 32 µM. For the same compound, the MIC (C. albicans SP3903) was 16 µM, the MIC (C. albicans SP3937) was 16 µM and the MIC (C. albicans cgmcc 2.2086) was 8 µM. The “MICs, C. albicans 56214” value [4] was 16 µM.
Compound RRFSFWFSFRR-NH2 [Peptide P19] has an MIC (E. coli 25922) of 128 µM, an MIC (E. coli UB1005) of 128 µM and an MIC (S. aureus 25923) greater than 128 µM. It also gave an MIC (S. aureus 29213) of 128 µM, an MIC (L. rhamnosus 1.0385) greater than 128 µM and an MIC (L. rhamnosus 1.0911) greater than 128 µM. For the same compound, the MIC [1] was 2 µM, the MIC [2] was 2 µM and the MIC (L. plantarum 7469) was greater than 128 µM. For the same compound, the MIC (S. thermophilus YM-C) was greater than 128 µM, the MIC [3] was 4 µM and the MIC (C. albicans SP3902) was 4 µM. The MIC (C. albicans SP3903) was 2 µM, the MIC (C. albicans SP3937) was 4 µM and the MIC (C. albicans cgmcc 2.2086) was 2 µM. For the same compound, the “MICs, C. albicans 56214” value [4] was 4 µM, the MIC (C.albicans cgmcc 2.2086; read-out: MIC in acid environment, pH = 6) was 4 µM and the MIC (C.albicans cgmcc 2.2086; read-out: MIC in the presence of FeCl3) was 4 µM. The MIC (C.albicans cgmcc 2.2086; read-out: MIC in the presence of KCl) was 4 µM, the MIC (C.albicans cgmcc 2.2086; read-out: MIC in the presence of MgCl2) was 4 µM and the MIC (C.albicans cgmcc 2.2086; read-out: MIC in the presence of NH4Cl) was 4 µM. For the same compound, the MIC (C.albicans cgmcc 2.2086; read-out: MIC in the presence of NaCl) was 32 µM, the MIC (C.albicans cgmcc 2.2086; read-out: MIC in the presence of ZnCl2) was 4 µM and the MIC (C.albicans cgmcc 2.2086; read-out: MIC, Control) was 2 µM. The hemolysis (human red blood cells) was “less than 5%”.
Compound RRISIWISIRR-NH2 [Peptide P17] has an MIC (E. coli 25922) of 128 µM, an MIC (E. coli UB1005) of 16 µM and an MIC (S. aureus 25923) of 128 µM. For the same compound, the MIC (S. aureus 29213) was 128 µM, the MIC (L. rhamnosus 1.0385) was 8 µM and the MIC (L. rhamnosus 1.0911) was 32 µM. The MIC [1] was 1 µM, the MIC [2] was 1 µM and the MIC (L. plantarum 7469) was greater than 128 µM. For the same compound, the MIC (S. thermophilus YM-C) was greater than 128 µM, the MIC [3] was 8 µM and the MIC (C. albicans SP3902) was 4 µM. For the same compound, the MIC (C. albicans SP3903) was 2 µM, the MIC (C. albicans SP3937) was 4 µM and the MIC (C. albicans cgmcc 2.2086) was 4 µM. The “MICs, C. albicans 56214” value [4] was 4 µM.
CC(C)C[C@H](NC(=O)[C@H](CS)NC(=O)[C@H](CC(C)C)NC(=O)[C@H](Cc1c[nH]c2ccccc12)NC(=O)[C@H](CC(C)C)NC(=O)[C@H](CS)NC(=O)[C@H](CC(C)C)NC(=O)[C@H](CCCNC(=N)N)NC(=O)[C@@H](N)CCCNC(=N)N)C(=O)N[C@@H](CCCNC(=N)N)C(=O)N[C@@H](CCCNC(=N)N)C(N)=O [Peptide P3] (H-RRLCLWLCLRR-NH2; N-terminus assumed) gave an MIC (E. coli 25922) of 4 µM (≈ 5.95 µg/mL), an MIC (E. coli UB1005) of 2 µM (≈ 2.97 µg/mL) and an MIC (S. aureus 25923) of 8 µM (≈ 11.9 µg/mL). The MIC (S. aureus 29213) was 8 µM (≈ 11.9 µg/mL), the MIC (L. rhamnosus 1.0385) was greater than 128 µM and the MIC (L. rhamnosus 1.0911) was 128 µM (≈ 190 µg/mL). It also gave an MIC [1] of 16 µM (≈ 23.8 µg/mL), an MIC [2] of 4 µM (≈ 5.95 µg/mL) and an MIC (L. plantarum 7469) of 128 µM (≈ 190 µg/mL). For the same compound, the MIC (S. thermophilus YM-C) was greater than 128 µM, the MIC [3] was 16 µM (≈ 23.8 µg/mL) and the MIC (C. albicans SP3902) was 16 µM (≈ 23.8 µg/mL). For the same compound, the MIC (C. albicans SP3903) was 16 µM (≈ 23.8 µg/mL), the MIC (C. albicans SP3937) was 16 µM (≈ 23.8 µg/mL) and the MIC (C. albicans cgmcc 2.2086) was 8 µM (≈ 11.9 µg/mL). For the same compound, the “MICs, C. albicans 56214” value [4] was 16 µM.
